Results reported in patent US8450525B2, “Histone deacetylase inhibitors” (Orchid Chemicals & Pharmaceuticals Limited, priority 2007, dated 2013).

Tests used:
Acetylated histone (H3) = test: Histone (H3) acetylation, sandwich ELISA in HCT116 cell lysate; assay type: cell-based; details: HCT116 cells, 4 hours, vs control
Method: (§1) The incubation lasted 18 hours for p21 induction. After incubation, cell lysates were prepared in cell lysis buffer by sonication on ice. The lysates were collected after centrifugation and subjected to ELISA test procedure. 100 μL of each diluted cell lysate in dilution buffer (1:1) was added to appropriate capture antibody coated microwells and incubated overnight at 4° C. After washing, 100 μL of detection antibody was added for 1 hour at 37° C. After second washing, 100 μL of HRP-linked secondary antibody was added for 30 minutes at 37° C. Finally, after appropriate washing, 100 μL of TMB substrate was added for 10 minutes at 37° C. followed by 100 μL, of stop solution. The absorbance of individual wells was read using a spectrophotometer at 450 nm (A450).

[1] = biological target: T1, HDAC (Mouse Liver Extract); test: HDAC inhibition assay using Boc-Lys(Ac)-AMC substrate, mouse liver enzyme; assay type: biochemical;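 for IC50: IC50 for inhibition of HDAC activity in mouse liver extract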
T1 construct: Mouse liver enzyme (10 mg/ml) was diluted 1:6 with HDAC buffer

acetylated Tubulin = test: Tubulin acetylation, sandwich ELISA in HCT116 cell lysate; assay type: cell-based; details: HCT116 cells, 4 hours, vs control
Method: as §1

p21 = p21 induction, sandwich ELISA in HCT116 cell lysate; assay type: cell-based; details: HCT116 cells, 18 hours, vs control
Method: as §1

recombinant HDAC1 enzyme = biological target: T2, recombinant HDAC1 enzyme (Homo sapiens, UniProt Q13547); test: HDAC1 inhibitory activity, recombinant enzyme; assay type: biochemical; details: recombinant HDAC1 (BIOMOL); read-out: HDAC1 inhibition (IC50)
T2 construct: purchased BIOMOL, USA
T2 sequence (Q13547 whole entry): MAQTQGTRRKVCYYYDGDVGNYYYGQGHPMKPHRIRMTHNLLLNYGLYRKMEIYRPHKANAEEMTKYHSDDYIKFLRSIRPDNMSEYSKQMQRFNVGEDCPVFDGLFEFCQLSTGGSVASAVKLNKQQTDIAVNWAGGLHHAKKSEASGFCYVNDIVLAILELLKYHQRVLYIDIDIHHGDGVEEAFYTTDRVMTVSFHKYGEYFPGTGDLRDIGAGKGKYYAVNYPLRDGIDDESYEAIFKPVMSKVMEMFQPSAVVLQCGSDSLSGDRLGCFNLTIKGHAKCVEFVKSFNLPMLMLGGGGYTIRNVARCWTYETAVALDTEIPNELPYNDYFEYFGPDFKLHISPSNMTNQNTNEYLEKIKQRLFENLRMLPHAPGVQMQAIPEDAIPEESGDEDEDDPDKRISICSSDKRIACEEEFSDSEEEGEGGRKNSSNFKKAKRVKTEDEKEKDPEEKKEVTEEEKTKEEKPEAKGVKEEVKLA
Method: Assay was done in 96-well black microplate and total volume of the assay was 100 μL. Mouse liver enzyme (10 mg/ml) was diluted 1:6 with HDAC buffer. Enzyme cocktail was made of 10 μL of diluted enzyme and 30 μL of HDAC buffer. 40 μl of enzyme cocktail followed by 10 μL of test compound (1 μM and 10 μM) or buffer (control) was added to each well. The plate was pre-incubated at 37° C. for 5 minutes. The HDAC reaction was started by adding 50 μl of HDAC substrate Boc-Lys (Ac)-AMC (Bachem AG, Switzerland). The plate was incubated at 37° C. for 30 minutes. The reaction was stopped by adding 100 μL of Trypsin stop solution and incubating at 37° C. for 15-30 minutes. Measuring the fluorescence at excitation wavelength of 360 nm and emission wavelength of 460 nm monitored the release of AMC. Buffer alone and substrate alone served as blank. […] (Dennis Wegener et al, Anal. Biochem, 321, 2003, 202-208).
Since the benzamide type compounds are known to have potential for HDAC class 1 specificity, active compounds were tested for HDAC1 inhibitory activity. The assay was carried out, as previously described using recombinant HDAC1 enzyme (BIOMOL, USA) and following manufacturer's instructions.

NCI-H460 (lung) cells = test: Anti-cancer screen, growth inhibition (MTT); assay type: cell-based; details: Homo sapiens, 48 hours of incubation
Method in brief: (§2)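 MTT added for 3 h at 37° C, formazan dissolved in DMSO and A570 read. A T0 plate was measured at compound addition.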

HCT 116 (colon) cells = test: Anti-cancer screen, growth inhibition (MTT); assay type: cell-based; details: Homo sapiens, HCT-116 cells, 48 hours of incubation
Method in brief: as §2

U251 (glioma) cells = test: Anti-cancer screen, growth inhibition (MTT); assay type: cell-based; details: Homo sapiens, U-251 cells, 48 hours of incubation
Method in brief: as §2

HCT116 (colon) xenograft = assay type: in vivo; details: 100 mg/kg p.o. qdx21, HCT116 xenograft, vs vehicle treated control
Method: Experiments were carried out using 6-8 week old female […] SCID (Severe Combined Immune Deficient) mice. The mice were housed in Individually Ventilated Cages (IVC) at constant temperature (22±3° C.) and humidity (50±20%). They had free access to food and water. Tumors were obtained from ATCC, USA and maintained in vivo by subcutaneous (s.c.) passage of tumor fragments (app×30 mg) in healthy mice according to standard reported procedures. All the animal protocols were approved by the Institutional Animal Ethics Committee, ORLL, Chennai. Each experimental group included 6-8 mice bearing s.c. tumors. Tumors were implanted into the axillary region by puncturing using a Trocar, and tumor growth was monitored by measurement of tumor diameters with a Vernier caliper. Tumor Volume (TV) was calculated according to the following formula: TV (mm^3)=L×W^2×0.5,
Where L and W are the longest diameter and shortest diameter of the tumor, respectively. The compound treatment started when tumors were palpable (150-200 mm^3).
Test compound was administered by oral gavage in a volume of 5-10 ml/kg. […] Tumor size was measured twice every week and body weight was recorded daily prior to dosing.
Test compound (T) efficacy was assessed by calculating several parameters based on tumor volume (TV) with respect to untreated control (C). […]
Toxic effects of drug treatment were assessed by Body Weight Loss %. […]

IC50 [1] | HDAC Inhibition % (1 μM) [1] | HDAC Inhibition % (10 μM) [1] | IC50 (recombinant HDAC1 enzyme) | GI50 (NCI-H460 (lung) cells) | GI50 (HCT 116 (colon) cells) | GI50 (U251 (glioma) cells) | Structure (SMILES) | H3 Acetylation (Fold Increase) (Acetylated histone (H3); 1 μM) | H3 Acetylation (Fold Increase) (Acetylated histone (H3); 10 μM) | μ-Tubulin Acetylation (Fold Increase) (acetylated Tubulin; 1 μM) | μ-Tubulin Acetylation (Fold Increase) (acetylated Tubulin; 10 μM) | P21 Induction (Fold Increase) (p21; 1 μM) | P21 Induction (Fold Increase) (p21; 10 μM) | maximum Tumor Volume Inhibition (TVI) (HCT116 (colon) xenograft)
5.5 µM | 34.5% | 59.0% | 0.044 µM | 5 µM | 0.4 µM | 4 µM | Nc1ccccc1NC(=O)c1ccc(/C=C(/C(=O)NC2CC2)c2cccc(Cl)c2)cc1 [Example 114, N-(2-Aminophenyl)-4-(3-(cyclopropylamino)-2-(3-chlorophenyl)-3-oxoprop-1-en-1-yl)benzamide] | – | – | – | – | – | – | –
8.3 µM | 31.1% | 50.1% | 0.068 µM | 6 µM | 0.1 µM | 15 µM | Nc1ccccc1NC(=O)c1ccc(/C=C(/C(=O)NC2CC2)c2ccc(F)c(F)c2)cc1 [Example 115, N-(2-Aminophenyl)-4-(3-(cyclopropylamino)-2-(3,4-difluorophenyl)-3-oxoprop-1-en-1-yl)benzamide] | – | – | – | – | – | – | –
9 µM | 32.4% | 55.7% | 0.06 µM | 6.1 µM | 0.4 µM | 11 µM | COc1ccc(/C(=C\c2ccc(C(=O)Nc3ccccc3N)cc2)C(=O)NC2CC2)cc1 [Example 116, N-(2-Aminophenyl)-4-(3-(cyclopropylamino)-2-(4-methoxyphenyl)-3-oxoprop-1-en-1-yl)benzamide] | – | – | – | – | – | – | –

Continued, compound first:

Structure (SMILES) | IC50 [1] | HDAC Inhibition % (1 μM) [1] | HDAC Inhibition % (10 μM) [1] | IC50 (recombinant HDAC1 enzyme) | GI50 (NCI-H460 (lung) cells) | GI50 (HCT 116 (colon) cells) | GI50 (U251 (glioma) cells) | H3 Acetylation (Fold Increase) (Acetylated histone (H3); 1 μM) | H3 Acetylation (Fold Increase) (Acetylated histone (H3); 10 μM) | μ-Tubulin Acetylation (Fold Increase) (acetylated Tubulin; 1 μM) | μ-Tubulin Acetylation (Fold Increase) (acetylated Tubulin; 10 μM) | P21 Induction (Fold Increase) (p21; 1 μM) | P21 Induction (Fold Increase) (p21; 10 μM) | maximum Tumor Volume Inhibition (TVI) (HCT116 (colon) xenograft)
Nc1ccccc1NC(=O)c1ccc(/C=C(/C(=O)NC2CC2)c2ccc(F)cc2)cc1 [Example 105, (E)-N-(2-Aminophenyl)-4-(3-(cyclopropylamino)-2-(4-fluorophenyl)-3-oxoprop-1-en-1-yl)benzamide] | 15.8 µM | 46.0% | 71.3% | 0.077 µM | 0.9 µM | 1 µM | 4.8 µM | 1.24 | 6.67 | 2.22 | 8.98 | 1.05 | 2.50 | 39.4%
Nc1ccccc1NC(=O)c1ccc(C=C(C(=O)NC2CC2)c2ccccc2)cc1 [Example 107, N-(2-Aminophenyl)-4-(3-(cyclopropylamino)-2-phenyl-3-oxoprop-1-en-1-yl)benzamide] | 12 µM | 34.1% | 58.4% | 0.18 µM | 5 µM | 2 µM | 4.5 µM | – | – | – | – | – | – | –
Nc1ccccc1NC(=O)c1ccc(/C=C(/C(=O)NC2CC2)c2cccc(F)c2)cc1 [Example 110, N-(2-Aminophenyl)-4-(3-(cyclopropylamino)-2-(3-fluorophenyl)-3-oxoprop-1-en-1-yl)benzamide] | 5 µM | 45.7% | 71.4% | 0.15 µM | 5.5 µM | 0.3 µM | 5 µM | – | – | – | – | – | – | –
Nc1ccccc1NC(=O)c1ccc(/C=C(/C(=O)NC2CC2)c2ccc3c(c2)OCO3)cc1 [Example 111, N-(2-Aminophenyl)-4-(3-(cyclopropylamino)-2-(1,3-benzodioxol-5-yl)-3-oxoprop-1-en-1-yl)benzamide] | 8 µM | 24.8% | 52.2% | 0.1 µM | 2.1 µM | 1.1 µM | 1.5 µM | – | – | – | – | – | – | –
Nc1ccccc1NC(=O)c1ccc(/C=C(/C(=O)NC2CC2)c2ccccc2Cl)cc1 [Example 112, N-(2-Aminophenyl)-4-(3-(cyclopropylamino)-2-(2-chlorophenyl)-3-oxoprop-1-en-1-yl)benzamide] | 4.5 µM | 29.9% | 55.7% | 0.049 µM | 1.1 µM | 6 µM | 20 µM | – | – | – | – | – | – | –
